The values that follow come from patent US20040002445A1, “Enhancement of endogenous gonadotropin production” (priority 2002, published 2004).

Assay [1] deals with plasma LH and FSH. To be noted: intermittent, but not continuous, administration; cited from earlier work.
Assay [2] relates to serum LH. To be noted: two stimulations with 25 mcg each on 3 consecutive days, 12 normally menstruating females; cited from earlier work.
Assay [3] has as its system plasma testosterone. Kind of assay: Phase 1 study of oral leuprolide acetate for 28 days, hormonal response (plasma testosterone). The class given is in vivo, human. The following applies: for Testosterone levels: healthy males. An excerpt:
Twenty subjects were assigned to each dosing group.

As for “gonadotropin releasing hormone (QHWSYGLRPG; Gonadoliberin-1; UniProt P01148 24-33, looked up) [GnRH, hormone that is secreted by the hypothalamus in a pulsating fashion, also known as LH-RH]”, the “Plasma LH and FSH levels” value in assay [1] was “increases in plasma LH and FSH levels”. For the same compound, in assay [2], the “Serum LH levels” value is on record as “Increases in serum LH levels”.

For the compound `CCNC(=O)[C@@H]1CCCN1C(=O)[C@H](CCCNC(=N)N)NC(=O)[C@H](CC(C)C)NC(=O)[C@@H](CC(C)C)NC(=O)[C@H](Cc1ccc(O)cc1)NC(=O)[C@H](CO)NC(=O)[C@H](Cc1c[nH]c2ccccc12)NC(=O)[C@H](Cc1c[nH]cn1)NC(=O)[C@@H]1CCC(=O)N1` [leuprolide acetate], the “Testosterone levels relative to baseline” value was “failed to raise the levels of testosterone above the baseline” in assay [3] (Group A, 5 mg q.d. oral); “higher than the baseline until Day 7” in assay [3] (Group B, 5 mg b.i.d. oral); “higher than the baseline until Day 6” in assay [3] (Group C, 10 mg q.d. oral). The Testosterone levels stood at 452.45 ng/dL in assay [3] (Group A, 5 mg q.d. oral, Day 2, baseline 453.25); 406.25 ng/dL in assay [3] (Group A, 5 mg q.d. oral, Day 3, baseline 453.25); 384.70 ng/dL in assay [3] (Group A, 5 mg q.d. oral, Day 4, baseline 453.25); 430.55 ng/dL in assay [3] (Group A, 5 mg q.d. oral, Day 5, baseline 453.25); 434.55 ng/dL in assay [3] (Group A, 5 mg q.d. oral, Day 6, baseline 453.25); 413.75 ng/dL in assay [3] (Group A, 5 mg q.d. oral, Day 7, baseline 453.25). The Testosterone levels came to 405.85 ng/dL in assay [3] (Group A, 5 mg q.d. oral, Day 8, baseline 453.25); 358.8 ng/dL in assay [3] (Group A, 5 mg q.d. oral, Day 9, baseline 453.25); 369.80 ng/dL in assay [3] (Group A, 5 mg q.d. oral, Day 10, baseline 453.25); 563.5 ng/dL in assay [3] (Group B, 5 mg b.i.d. oral, Day 2, baseline 485.00); 541.35 ng/dL in assay [3] (Group B, 5 mg b.i.d. oral, Day 3, baseline 485.00); 527.40 ng/dL in assay [3] (Group B, 5 mg b.i.d. oral, Day 4, baseline 485.00). The Testosterone levels is given as 502.85 ng/dL in assay [3] (Group B, 5 mg b.i.d. oral, Day 5, baseline 485.00); 493.25 ng/dL in assay [3] (Group B, 5 mg b.i.d. oral, Day 6, baseline 485.00); 484.75 ng/dL in assay [3] (Group B, 5 mg b.i.d. oral, Day 7, baseline 485.00); 449.10 ng/dL in assay [3] (Group B, 5 mg b.i.d. oral, Day 8, baseline 485.00); 427.65 ng/dL in assay [3] (Group B, 5 mg b.i.d. oral, Day 9, baseline 485.00); 428.95 ng/dL in assay [3] (Group B, 5 mg b.i.d. oral, Day 10, baseline 485.00). Besides, the Testosterone levels in assay [3] (Group C, 10 mg q.d. oral, Day 2, baseline 458.85) is reported as 495.85 ng/dL; in assay [3] (Group C, 10 mg q.d. oral, Day 3, baseline 458.85), 501.00 ng/dL; in assay [3] (Group C, 10 mg q.d. oral, Day 4, baseline 458.85), 492.20 ng/dL; in assay [3] (Group C, 10 mg q.d. oral, Day 5, baseline 458.85), 463.90 ng/dL; in assay [3] (Group C, 10 mg q.d. oral, Day 6, baseline 458.85) it was 412.65 ng/dL; in assay [3] (Group C, 10 mg q.d. oral, Day 7, baseline 458.85), 435.50 ng/dL. Further, the Testosterone levels in assay [3] (Group C, 10 mg q.d. oral, Day 8, baseline 458.85) is on record as 409.00 ng/dL; in assay [3] (Group C, 10 mg q.d. oral, Day 9, baseline 458.85), 428.05 ng/dL; in assay [3] (Group C, 10 mg q.d. oral, Day 10, baseline 458.85), 405.95 ng/dL. In addition, the “Elevation of plasma testosterone, comparison of dose groups” value in assay [3] (Group B, 5 mg b.i.d., compared with Group C, 10 mg q.d.) was “more significant elevation of plasma testosterone”.
